Assay results taken from PubChem BioAssay (NCI).
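Test compounds were applied to cells in 96-well plates for 48 hours at 5 doses. At the TGI there is no net growth.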

Assays:
Test in all cases: DTP human tumour cell line panel, 48 h
OVCAR-8 ovarian = test system: OVCAR-8 ovarian
SK-MEL-5 melanoma = test system: SK-MEL-5 melanoma
SNB-19 CNS = test system: SNB-19 CNS
SK-MEL-2 melanoma = test system: SK-MEL-2 melanoma
SK-OV-3 ovarian = test system: SK-OV-3 ovarian
NCI-H522 lung = test system: NCI-H522 lung
786-0 renal = test system: 786-0 renal
SK-MEL-28 melanoma = test system: SK-MEL-28 melanoma
U251 CNS = test system: U251 CNS
IGROV1 ovarian = test system: IGROV1 ovarian
K-562 leukemia = test system: K-562 leukemia
MOLT-4 leukemia = test system: MOLT-4 leukemia
NCI-H226 lung = test system: NCI-H226 lung
RXF 393 renal = test system: RXF 393 renal
SF-268 CNS = test system: SF-268 CNS
SN12C renal = test system: SN12C renal
NCI-H23 lung = test system: NCI-H23 lung
MDA-MB-435 = test system: MDA-MB-435
MDA-MB-231 breast = test system: MDA-MB-231 breast

SMILES | TGI (OVCAR-8 ovarian) | TGI (SK-MEL-5 melanoma) | TGI (SNB-19 CNS) | TGI (SK-MEL-2 melanoma) | TGI (SK-OV-3 ovarian) | TGI (NCI-H522 lung) | TGI (786-0 renal) | TGI (SK-MEL-28 melanoma) | TGI (U251 CNS) | TGI (IGROV1 ovarian) | TGI (K-562 leukemia) | TGI (MOLT-4 leukemia) | TGI (NCI-H226 lung) | TGI (RXF 393 renal) | TGI (SF-268 CNS) | TGI (SN12C renal) | TGI (NCI-H23 lung) | TGI (MDA-MB-435) | TGI (MDA-MB-231 breast)
CCC(C)n1c(C)nc2c1C(=O)c1ccccc1C2=O (stereo not drawn) | > 100 µM | > 100 µM | > 100 µM | > 100 µM | > 100 µM | > 100 µM | > 100 µM | > 100 µM | > 100 µM | > 100 µM | > 100 µM | > 100 µM | > 100 µM | > 100 µM | > 100 µM | > 100 µM | > 100 µM |  | 
COc1ccc(C2=CC(c3ccccc3)n3nnnc3N2)cc1 (stereo not drawn) | > 100 µM | > 100 µM | > 100 µM | > 100 µM | > 100 µM | > 100 µM | > 100 µM |  | > 100 µM | > 100 µM | > 100 µM | > 100 µM | > 100 µM | > 100 µM | > 100 µM | > 100 µM | > 100 µM | > 100 µM | > 100 µM
CC1(C)CCC[C@@]2(C)C1CCC1(C)C(CCc3ccoc3)/C(=C/OS(=O)(=O)O)CCC12 (stereo partly drawn) (tested in a mixture with another compound) | > 100 µM | > 100 µM | > 100 µM | > 100 µM | > 100 µM |  | > 100 µM | > 100 µM | > 100 µM | > 100 µM | > 100 µM | 79.7 µM | > 100 µM | > 100 µM | > 100 µM | > 100 µM | > 100 µM |  | 
O=C(/C=C/c1ccc(OCCCOc2ccc(/C=C/C(=O)c3ccccc3)cc2)cc1)c1ccccc1 | > 100 µM | > 100 µM | > 100 µM | > 100 µM |  |  | > 100 µM | > 100 µM |  | > 100 µM | > 100 µM | > 100 µM | > 100 µM | > 100 µM | > 100 µM | > 100 µM | > 100 µM |  | 
C=C(CN(C)C)C(=O)c1ccccc1C | > 100 µM | > 100 µM | > 100 µM | > 100 µM | > 100 µM | 12.3 µM | 35.8 µM | 62.4 µM | > 100 µM | > 100 µM | 45.9 µM | 35.7 µM | > 100 µM | 17.6 µM | > 100 µM | > 78.1 µM | > 100 µM |  | 
COc1ccc2nc3cc(Cl)ccc3c(NCCCN(Cc3cc(OC)c(OC)c(OC)c3)Cc3cc(OC)c(OC)c(OC)c3)c2c1 | 25.5 µM | 2.61 µM | 35.8 µM | 72.1 µM | 32.8 µM | 25.4 µM | 32.1 µM | 33.2 µM | 17.3 µM | 35.1 µM | 3.77 µM | 7.11 µM | 34.5 µM | 15.2 µM | 41.7 µM | 41 µM |  |  | 10.6 µM
CCNC(C)Cc1ccccc1 (stereo not drawn) | > 100 µM | > 100 µM | > 100 µM | > 100 µM | > 100 µM | > 100 µM | > 100 µM | > 100 µM | > 100 µM | > 100 µM | > 100 µM |  | > 100 µM | > 100 µM | > 100 µM | > 100 µM | > 100 µM |  | 
OC1[C@H]([C@H]2CCCC[C@@H]2O)CCC[C@@H]1[C@@H]1CCCC[C@H]1O (stereo partly drawn) | > 100 µM | > 100 µM | > 100 µM | > 100 µM | > 100 µM | > 100 µM | > 100 µM | > 100 µM | > 100 µM | > 100 µM | > 100 µM | > 100 µM | > 100 µM | > 100 µM | > 100 µM | > 100 µM | > 100 µM |  | 
Nc1ccc(S(=O)(=O)Nc2nnc(S(N)(=O)=O)s2)cc1 |  |  | > 100 µM |  | > 100 µM | > 100 µM | > 100 µM |  | > 100 µM |  |  | > 100 µM | > 100 µM | > 100 µM | > 100 µM |  | > 100 µM | > 100 µM | > 100 µM
CN(C)CCOc1cccc2c1C(=O)c1ccccc1C2=O | 56 µM | 25.3 µM | 66.3 µM | 31.4 µM | 81.2 µM | 20.5 µM | 52 µM | 28.6 µM | 72.5 µM | 43.4 µM | 33.7 µM | 21.5 µM | 22.2 µM | 27.3 µM | 27.3 µM | 37.3 µM | 24 µM |  | 
CC(=O)OC12/C(=N/O)CCCCCC1c1ccccc12 (stereo not drawn) | > 100 µM | > 100 µM | > 100 µM | > 100 µM | > 100 µM | 98.9 µM | > 100 µM | > 100 µM | > 100 µM |  | > 100 µM | > 100 µM | > 100 µM | > 100 µM | > 100 µM | > 100 µM | > 100 µM |  | 
CC[C@@]1(N(C)C)C(=O)OCc2c1cc1n(c2=O)Cc2cc3ccccc3nc2-1 | 31.2 µM | > 100 µM | > 100 µM | 77.5 µM | 51.5 µM | 28.7 µM | 73.7 µM | > 100 µM | > 100 µM |  | > 100 µM |  | 90.1 µM | 31 µM | 36.7 µM |  | 32 µM | > 100 µM | > 100 µM
